This note sets out measurements from patent publication US20260159536A1, “AKR1C3-ACTIVATED DNA ALKYLATING AGENT, AND MEDICAL APPLICATION THEREOF” (ASCENTAWITS PHARMACEUTICALS, LTD., priority 2021, published 2026).

The nature of series [1]: Blood-brain barrier assay of Compound AST-2870 (plasma and brain concentration, PK). In kind it is in vivo, CD-1 mice. The protocol: Three CD-1 mice were administered 10 mg/kg of test Compound AST-2870 by intraperitoneal injection at each time point. Blood and brain tissues were taken at 5 min, 15 min, 30 min, 1 h, 1.5 h, and 2 h after administration, and the concentration of the test substance in the samples was determined by LC/MS method. The corresponding results of the concentrations of Compound AST-2870 in blood and brain tissue versus time were made into a curve graph, as shown in FIG. 37. The corresponding test results of the ratio of the concentration of the Compound AST-2870 in brain tissue and blood versus time were made into a curve graph, as shown in FIG. 38.

A further series concerns H460 cancer cells. The experiment in a line: H460 proliferation in the presence or absence of AKR1C3 inhibitor AST-3021 (Alamar Blue). It is filed as cell-based, human. To be noted: for IC50: Homo sapiens, NCI-H460, H460, 2 hours exposure; for Fold: IC50 with AST-3021 over IC50 without. How it is done:
The tested compound was then added. The compound was dissolved in 100% DMSO at 200 times of the desired final test concentration. When the medicament was added, the compound was further diluted to 4 times of the desired final test concentration by using the complete medium. 50 μL of aliquots of the compound with specific concentration were added to the microwells containing 150 μL of medium, and then the final medicament concentration was obtained. […] The medicament was then washed. […] After the incubation was finished, the Alamar Blue was used to analyze and quantify the living cells.

In the next series the test system is MHCC97H. The experiment in a line: Cytotoxicity on hepatocellular carcinoma cell line MHCC97H. In kind it is cell-based. The following applies: for IC50: Homo sapiens. How it is done:
(§1) If not otherwise specified, IC50 values were measured by the following experimental methods:
(§2) a) Cells were plated for 24 hours, and then the compounds acted singly. 99 μL of growth medium was supplemented per well, and then 1 μL of 200× compound was added, gently shaken to ensure uniform mixing, and then placed in a 37° C., 5% CO2 incubator.
(§3) b) The cell plate was placed in the incubator for 72 hours.
(§4) b) 100 μL of CTG reagent (CelltiterGlo kit) was added to each well, the plate was placed in a rapid oscillator and shaken for 2 minutes, and then placed at room temperature for 30 minutes away from light.
(§5) The IC50 was calculated using GraphPad Prism 8 software and the IC50 (half inhibitory concentration) of the compounds was obtained using the following non-linear fitting formula: […]
(§6) Using the same experimental methods as described above, Compounds A, B and C were further tested for cytotoxicity against different hepatocellular carcinoma (HCC) cell lines SNU354, SNU886, MHCC97H and huH-1, and the results were shown in Table 2 below: […]

The subject of another series is H460 cells. The series is described as follows: Inhibition of H460 cancer cell proliferation (CTG, 72 h). In kind it is cell-based. To be noted: Homo sapiens, NCI-H460. How it is done: as §1
c) The cell suspension was added to 96-well plate with 100 μL per well and 2000 cells/well of cell density.
as §2, §3, §4
c) The chemiluminescence signal value was read with Envision instrument.
as §5

In the next series the test system is huH-1. The experiment in a line: Cytotoxicity on hepatocellular carcinoma cell line huH-1. It is filed as cell-based. The following applies: for IC50: Homo sapiens, HuH-1. The protocol: as §1, §2, §3, §4, §5, §6
For a further series, the system named is SNU354. The series is described as follows: Cytotoxicity on hepatocellular carcinoma cell line SNU354. It is filed as cell-based. The following applies: for IC50: Homo sapiens, SNU-354. The protocol: as §1, §2, §3, §4, §5, §6
A further series has as its system SNU886. The experiment in a line: Cytotoxicity on hepatocellular carcinoma cell line SNU886. In kind it is cell-based. The following applies: for IC50: SNU-886. The protocol: as §1, §2, §3, §4, §5, §6
The mark [2] stands for this setting: brain tissues, 10 mg/kg intraperitoneal injection, Mean.
Where [3] appears, read: plasma, 10 mg/kg intraperitoneal injection, Mean.
Where [4] appears, read: no AKR1C3 inhibitor, read-out: IC50 Without the addition of AST-3021.

Molecules are shown by their SMILES. Like-named read-outs stand apart in the source and are kept apart here.

As a reminder, the Tmax is the time at which the peak concentration occurs. By Cmax is commonly meant the highest concentration seen after dosing. Take `CC(OP(=O)(N1CC1)N1CC1)c1ccc([N+](=O)[O-])c(Oc2cccc(C(=O)N(C)C)c2)c1` (stereo not drawn) [AST-2870]: the concentration in brain entry in series [1] (10 mg/kg i.p., after 30 minutes) is recorded as “lower than the lower limit of quantitation”. In addition, the blood-brain barrier penetration result in series [1] (10 mg/kg intraperitoneal injection) is reported as “could not cross the blood-brain barrier”. The “AUCInf Ratio (Brain/Plasma)” value in series [1] (10 mg/kg intraperitoneal injection, Mean) was determined as 0.0227. For the same compound, in series [1] (setting [2]), the AUCInf came to 16.5 ng·h/g, the AUClast stood at 16.3 ng·h/g, the Tmax is 4.8 min and the T½ was determined as 4.48 min. In series [1] (setting [3]), this compound showed an AUCInf of 725 ng·h/mL, an AUClast of 725 ng·h/mL, a Cmax of 4023 ng/mL and a T½ of 9 min.
As a reminder, the IC50 is the concentration at which inhibition is half-maximal. Turning to `O=[N+]([O-])c1ccc([C@H](OP(=O)(N2CC2)N2CC2)C(F)(F)F)cc1Oc1ccc(-c2ccc(F)cc2)c(F)c1` [B], the IC50 was 3.73 nM in the series on H460 cancer cells (setting [4]); 242 nM in the series on MHCC97H; 8.77 nM in the series on H460 cells; 258 nM in the series with huH-1; 754 nM in the series on SNU354; 378 nM with SNU886. The compound further yielded a Fold in the series with H460 cancer cells of 513.28.
With `O=[N+]([O-])c1ccc([C@@H](OP(=O)(N2CC2)N2CC2)C(F)(F)F)cc1Oc1ccc(-c2ccc(F)cc2)c(F)c1` [C], the IC50 stood at 3330 nM in the series on H460 cancer cells (AST-3021 3 micromolar, read-out: IC50 With the addition of AST-3021); 7.66 nM in the series on H460 cancer cells (setting [4]); 563 nM in the series on MHCC97H; 23.4 nM in the series on H460 cells; 269 nM with huH-1; 1520 nM with SNU354. The compound further returned an IC50 in the series with SNU886 of 843 nM. Moreover, the Fold in the series on H460 cancer cells is recorded as 434.76. Also, the “ratio C/B” value in the series with MHCC97H (IC50 ratio) came to 2.32; in the series with huH-1 (IC50 ratio, huH-1) it was 1.49; in the series with SNU354 (IC50 ratio) it was 2.01; in the series on SNU886 (IC50 ratio), 2.23.
